Values joined by “and” are separate entries in the source; they are usually repeats but may differ in a detail not shown here. Equal values may be shown once. Read-outs that look alike come from different tables or passages of the source.
Key:
[1] = Rat single dose PK study; format: in vivo; conditions: 1 mg/kg; for concentration at 4 h: oral
Experimental: (§1) Rat Single Dose PK Study (Inhibition of CSF Aβ40 in Wistar Rats)
(§2) The rat single dose PK study was described in H. Hilpert et al., J. Med. Chem. 2013, 56, 3980-3995 (dx.doi.org/10.1021/jm400225m) with slight modifications.
(§3) Blood is transferred into a labeled EDTA-K2 Eppendorf tube and the sample is mixed by inverting the tubes several times. Blood is stored at −20° C.

[2] = Cynomolgus monkey single dose PK study; format: in vivo, Cynomolgus monkey (Macacaca fascicularis)
Source text: Cynomolgus Monkey (Macacaca fascicularis) Single Dose PK Study and Plasma Aβ40 Determination
Blood and plasma collection will always be performed in the treatment cage. The animal care keeper grabs either one arm or one leg through the bars. The hairs are shaved for better visibility of the vein. The blood vessel is squeezed, the vein is punctured by using a butterfly and blood is taken. Once enough blood has been withdrawn a cotton swab is placed over the injection site and the needle is gently removed. Bleeding is stopped by pressing a cotton swab on the wound. Plasma samples were taken between 5 min and 48 h.
Plasma Preparation Cynomolgus
as §3

[3] = tested on: CSF Aβ40; test: Rat single dose study, inhibition of CSF Aβ40 in Wistar rats; format: in vivo; conditions: rat CSF Aβ40, 1 mg/kg, 4 h post dose
Experimental: as §1, §2
Aβ 40 concentration was determined without solid phase extraction following a modified protocol from Perkin-Elmer with a commercially available antibody against the N-terminal part of rat Aβ (252Q6, Invitrogen cat. No. AMB0062) and an in-house C-terminal specific anti-Aβ40 antibody (BAP-24, Brockhaus M. et al., J. Neuroreport, 1998, 9:1481-1486) bound to acceptor beads (PerkinElmer, Cat. 6772002). 20 μl analyte per well (reconstituted extracts or standard) were loaded to a White Optiplate-96 (Perkin-Elmer, Cat#6005290). Then, a mixture of biotinylated BAP24 antibody (1:2000 diluted at approximately 1 nM final concentration) and antibody 252Q6 bound to AlphaLISA acceptor beads (Perkin-Elmer cat. No. 6772002 (1:100 diluted, 10 ug/mL final concentration) in 1× AlphaLISA buffer (Perkin-Elmer, AL000F) was added. After 1 hour room temperature incubation in the dark, 20 μL of a streptavidin coated donor beads dilution (40 μg/mL) were added and incubated for 30 minutes in the dark. Light emission at 615 nm was recorded using an EnVision AlphaScreen Reader (Perkin-Elmer). Levels of Aβ 40 were calculated as percentage of the baseline samples from non-treated animals.

[4] = biological target: BACE1 (Homo sapiens, UniProt P56817); test: BACE1 cell-free assay (BACE1 enzyme assay); format: biochemical
Sequence of BACE1 (P56817 46-501): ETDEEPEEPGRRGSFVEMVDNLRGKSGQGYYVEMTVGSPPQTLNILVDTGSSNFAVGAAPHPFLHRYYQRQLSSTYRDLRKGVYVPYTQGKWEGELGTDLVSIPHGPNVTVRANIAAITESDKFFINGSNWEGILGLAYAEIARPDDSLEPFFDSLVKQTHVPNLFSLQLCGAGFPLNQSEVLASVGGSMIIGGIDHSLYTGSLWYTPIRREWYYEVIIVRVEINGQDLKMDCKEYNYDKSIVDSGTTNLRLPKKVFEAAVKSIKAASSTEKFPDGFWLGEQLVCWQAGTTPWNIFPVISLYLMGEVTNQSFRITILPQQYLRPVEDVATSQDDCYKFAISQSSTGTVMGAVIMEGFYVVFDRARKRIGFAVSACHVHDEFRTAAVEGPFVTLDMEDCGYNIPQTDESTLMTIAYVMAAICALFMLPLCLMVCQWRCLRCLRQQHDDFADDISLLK
Source text: BACE1 Cell-Free Assay (BACE1 Enzyme Assay)
The determination of BACE1 activity can be either measured by using an enzymatic cell-free fluorescence assay (BACE1 cell free, table 2) or by a whole cell assay using HEK293 APP cells (Cellular Aβ-lowering, table 2). Both assays are suitable to determine BACE1 inhibition.

[5] = biological target: T1, BACE2 (Homo sapiens, UniProt Q9Y5Z0); test: BACE2 cell-free assay (BACE2 enzyme assay); format: biochemical; conditions: for BACE2/BACE1 IC50 ratio: BACE2 IC50 divided by BACE1 IC50, cell free assays
T1 sequence (Q9Y5Z0 63-518): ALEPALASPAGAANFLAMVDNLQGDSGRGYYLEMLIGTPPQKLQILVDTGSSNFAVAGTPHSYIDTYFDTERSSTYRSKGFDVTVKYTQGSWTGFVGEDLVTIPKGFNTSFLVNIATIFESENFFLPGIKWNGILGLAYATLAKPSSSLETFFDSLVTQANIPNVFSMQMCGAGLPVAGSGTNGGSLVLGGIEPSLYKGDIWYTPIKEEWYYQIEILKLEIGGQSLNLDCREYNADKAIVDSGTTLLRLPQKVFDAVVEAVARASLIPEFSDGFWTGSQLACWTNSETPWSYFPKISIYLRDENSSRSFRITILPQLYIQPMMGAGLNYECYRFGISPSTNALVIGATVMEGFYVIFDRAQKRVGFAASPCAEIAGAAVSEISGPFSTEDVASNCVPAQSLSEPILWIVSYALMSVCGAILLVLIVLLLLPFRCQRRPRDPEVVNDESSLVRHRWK
Source text: BACE2 Cell-Free Assay (BACE2 Enzyme Assay)
Selectivity versus related targets is important in terms of safety of a drug candidate. BACE2 is a close homolog of BACE1. BACE2 was recently reported to play a crucial role in pigmentation of the skin by processing pigment cell-specific melanocyte protein (PMEL). (Proc Natl Acad Sci USA. 2013 Jun. 25; 110(26):10658-63. doi: 10.1073/pnas.1220748110. Epub 2013 Jun. 10). It is believed that PMEL contributes in melanogenesis. Therefore, selectivity versus BACE2 is advantageous when it comes to pigmentation of the skin. The selectivity ratio of BACE2/BACE1 IC50 was calculated by dividing the BACE2 IC50 value by the BACE1 IC50 value determined each in the cell free assay. […] This implies a 3-fold improvement of example 1 compared to comparators 4 and 5.

[6] = biological target: Human P-gp (Homo sapiens, UniProt P08183); test: P-gp transport assay (human); format: in vitro ADME; conditions: efflux ratio
Sequence of Human P-gp (P08183 whole entry): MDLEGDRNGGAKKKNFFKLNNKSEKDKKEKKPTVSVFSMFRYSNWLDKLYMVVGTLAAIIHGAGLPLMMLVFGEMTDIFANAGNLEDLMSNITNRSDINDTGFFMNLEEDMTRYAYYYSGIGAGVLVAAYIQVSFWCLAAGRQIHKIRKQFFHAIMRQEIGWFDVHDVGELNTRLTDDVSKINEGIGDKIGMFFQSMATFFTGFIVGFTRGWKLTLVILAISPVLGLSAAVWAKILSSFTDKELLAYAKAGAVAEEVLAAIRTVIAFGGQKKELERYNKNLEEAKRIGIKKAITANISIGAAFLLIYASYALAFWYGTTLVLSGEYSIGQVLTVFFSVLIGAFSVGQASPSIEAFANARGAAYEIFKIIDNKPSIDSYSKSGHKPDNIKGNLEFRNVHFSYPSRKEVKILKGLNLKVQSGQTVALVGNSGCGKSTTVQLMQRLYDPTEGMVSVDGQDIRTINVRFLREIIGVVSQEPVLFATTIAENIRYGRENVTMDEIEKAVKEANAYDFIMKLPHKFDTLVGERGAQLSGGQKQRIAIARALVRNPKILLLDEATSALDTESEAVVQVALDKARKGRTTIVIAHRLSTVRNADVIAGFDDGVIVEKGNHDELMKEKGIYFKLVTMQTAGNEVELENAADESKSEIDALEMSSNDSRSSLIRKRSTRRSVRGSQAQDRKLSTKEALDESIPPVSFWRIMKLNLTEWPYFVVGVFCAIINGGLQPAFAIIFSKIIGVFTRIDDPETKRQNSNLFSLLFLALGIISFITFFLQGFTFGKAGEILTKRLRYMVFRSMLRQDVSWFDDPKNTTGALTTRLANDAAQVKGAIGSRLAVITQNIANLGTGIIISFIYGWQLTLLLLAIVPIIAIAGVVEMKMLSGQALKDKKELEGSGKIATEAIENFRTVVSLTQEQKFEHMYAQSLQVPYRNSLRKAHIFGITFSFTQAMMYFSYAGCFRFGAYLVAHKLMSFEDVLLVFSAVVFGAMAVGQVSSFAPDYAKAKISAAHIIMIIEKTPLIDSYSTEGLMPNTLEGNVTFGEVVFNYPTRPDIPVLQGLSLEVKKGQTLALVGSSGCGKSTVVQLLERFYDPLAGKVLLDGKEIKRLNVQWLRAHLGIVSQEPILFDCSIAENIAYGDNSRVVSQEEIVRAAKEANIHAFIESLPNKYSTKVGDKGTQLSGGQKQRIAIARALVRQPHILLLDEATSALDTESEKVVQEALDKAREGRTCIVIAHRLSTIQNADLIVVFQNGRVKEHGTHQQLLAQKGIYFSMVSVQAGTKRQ
Source text: P-Gp Transport Assay (Human and Mouse) (P-Gp Assay)
In the assay of the P-gp efflux ratio ER as described hereinabove, a compound with ER<2.5 is regarded most suitable. In addition, compounds with low hERG channel binding are suitable as well.

Plasma concentration at 4 h, free ([1]; 4 h, free unbound): 12.5 nM
Plasma concentration at 4 h ([1]; 4 h, total): 90.2 nM
concentration at 4 h ([1]; Wistar, plasma, 4 h, free unbound, read-out: Plasma concentration at 4 h, free): 12.5 nM
concentration at 4 h ([1]; Wistar, plasma, 4 h, free, read-out: Plasma concentration at 4 h, free): 41 ng/mL
concentration at 4 h ([1]; Wistar, plasma, 4 h, total, read-out: Plasma concentration at 4 h): 90 nM and 41 ng/mL
bioavailability ([1]; Wistar, plasma, po, read-out: Oral Bioavailability F): 62%
AUC(0-24)/D p.o. ([2]; p.o., dose normalized): 4160 kg·ng·h/mL/mg
clearance ([2]; plasma): 2.1 mL/min/kg
bioavailability ([2]; plasma, po, read-out: Oral Bioavailability F): 52%
half-life ([2]; plasma, po, read-out: t1/2 p.o. (converted)): 19 h
IC50 [4]: 36 nM
improvement of BACE2/BACE1 selectivity compared to comparators 4 and 5 [5]: 3 fold
BACE2/BACE1 IC50 ratio [5]: 2.0
BACE2/BACE1 IC50 ratio ([5]; listed as example 1): 2
Human P-gp ER [6]: 1.7
SMILES: Cc1cc(C#N)cnc1C(=O)Nc1ccc(F)c([C@@]2(C)N=C(N)O[C@H](C(F)(F)F)[C@@H]2F)n1 [Example 1, N-(6-((4R,5R,6S)-2-amino-5-fluoro-4-methyl-6-(trifluoromethyl)-5,6-dihydro-4H-1,3-oxazin-4-yl)-5-fluoropyridin-2-yl)-5-cyano-3-methylpicolinamide]
CSF Aβ-lowering 1 mg/kg at 4 h [3]: 80%
CSF Aβ-lowering 1 mg/kg at 4 h ([3]; listed as example 1): 80%
